The assay addresses T1, B. subtilis DnaA (Bacillus subtilis, UniProt P05648).
T1 construct: full-length, cloned in pSP015 with His14-SUMO-FLAG3 tag; His14-SUMO cleaved (FLAG3 kept where present); E. coli BL21(DE3)-pLysS
As to the kind of experiment: competition with TNP-ATP fluorescence. Particulars: pH 8, 5 mM magnesium acetate, 25 C; competitive with TNP-ATP, nucleotide binding pocket.

T1 sequence (P05648 whole entry): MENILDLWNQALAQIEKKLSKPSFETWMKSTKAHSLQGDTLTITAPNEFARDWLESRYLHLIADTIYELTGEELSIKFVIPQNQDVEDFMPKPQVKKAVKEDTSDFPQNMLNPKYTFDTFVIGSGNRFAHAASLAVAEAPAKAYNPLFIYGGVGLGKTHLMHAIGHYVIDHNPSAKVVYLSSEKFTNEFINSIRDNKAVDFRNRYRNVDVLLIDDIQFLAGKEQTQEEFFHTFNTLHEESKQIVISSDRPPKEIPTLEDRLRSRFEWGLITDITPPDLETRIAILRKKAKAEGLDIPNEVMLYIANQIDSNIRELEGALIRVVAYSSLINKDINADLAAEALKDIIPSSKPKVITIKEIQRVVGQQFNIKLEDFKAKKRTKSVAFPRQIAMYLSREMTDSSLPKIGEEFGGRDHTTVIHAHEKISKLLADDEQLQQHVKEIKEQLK

In the case of `Nc1ncnc2c1ncn2[C@@H]1O[C@H](COP(=O)(O)OP(=O)(O)OP(=O)(O)O)[C@@H](O)[C@H]1O` [ATP], the “competition with TNP-ATP fluorescence” value was “can be competed away by addition of unlabelled ATP”.
